These results are taken from publication PMC5218480 (PLoS ONE, 2017).

The assay has as its system MV-4-11 cells. Kind of assay: Gene expression microarray analysis (Affymetrix PrimeView) and GSEA. In kind it is cell-based, human. The conditions noted are these: ProbeSet 11753616_s_at; LIST B. Also noted: RFU PODN (11730768_x_at) / Fold change /veh PODN (11730768_x_at) / RFU LINC00158 (11744669_a_at) / Fold change /veh LINC00158 (11744669_a_at) / RFU DUSP10 (11751237_a_at) / Fold change /veh DUSP10 (11751237_a_at) / RFU ID3 (11757404_x_at) / Fold change /veh ID3 (11757404_x_at) / RFU PLEKHG5 (11737974_s_at) / Fold change /veh PLEKHG5 (11737974_s_at) / RFU LRRC4B (11730491_at) / Fold change /veh LRRC4B (11730491_at) / RFU GIMAP4 (11747438_a_at) / Fold change /veh GIMAP4 (11747438_a_at) / RFU KRT8 (11758183_x_at) / Fold change /veh KRT8 (11758183_x_at) / RFU CNN1 (11734310_a_at) / Fold change /veh CNN1 (11734310_a_at) / RFU VPS37D (11726825_at) / Fold change /veh VPS37D (11726825_at) / RFU C10orf10 (11716522_x_at) / Fold change /veh C10orf10 (11716522_x_at) / RFU KIR2DL2 /// KIR2DL4 /// KIR2DL5A /// KIR2DL5B /// KIR2DS1 /// KIR2DS2 /// KIR2DS3 /// KIR2DS4 /// KIR3DL3 /// KIR3DL3 /// KIR3DS1 (11738374_at) / Fold change /veh KIR2DL2 /// KIR2DL4 /// KIR2DL5A /// KIR2DL5B /// KIR2DS1 /// KIR2DS2 /// KIR2DS3 /// KIR2DS4 /// KIR3DL3 /// KIR3DL3 /// KIR3DS1 (11738374_at) / RFU C1QL1 (11718748_at) / Fold change /veh C1QL1 (11718748_at) / RFU TMPRSS4 (11747572_a_at) / Fold change /veh TMPRSS4 (11747572_a_at) / RFU HAMP (11756126_x_at) / Fold change /veh HAMP (11756126_x_at) / RFU RNFT2 (11725882_a_at) / Fold change /veh RNFT2 (11725882_a_at) / RFU NR4A2 (11747474_a_at) / Fold change /veh NR4A2 (11747474_a_at) / RFU ABCC12 (11746883_a_at) / Fold change /veh ABCC12 (11746883_a_at) / RFU TMEM136 (11760407_x_at) / Fold change /veh TMEM136 (11760407_x_at) / RFU CLDN22 /// WWC2 (11732394_at) / Fold change /veh CLDN22 /// WWC2 (11732394_at) / RFU HLA-DPB1 (11760878_x_at) / Fold change /veh HLA-DPB1 (11760878_x_at) / RFU SPINT1 (11716480_a_at) / Fold change /veh SPINT1 (11716480_a_at) / RFU GAP43 (11754022_s_at) / Fold change /veh GAP43 (11754022_s_at) / RFU A4GNT (11735810_at) / Fold change /veh A4GNT (11735810_at) / RFU PRB3 (11715151_x_at) / Fold change /veh PRB3 (11715151_x_at) / RFU TUBB4B (11761932_at) / Fold change /veh TUBB4B (11761932_at) / RFU CAPN14 (11732068_a_at) / Fold change /veh CAPN14 (11732068_a_at) / RFU TMCC2 (11721928_a_at) / Fold change /veh TMCC2 (11721928_a_at) / RFU IRGQ (11745062_a_at) / Fold change /veh IRGQ (11745062_a_at) / RFU FAM174B (11720279_a_at) / Fold change /veh FAM174B (11720279_a_at) / RFU TMPRSS4 (11748680_a_at) / Fold change /veh TMPRSS4 (11748680_a_at) / RFU FAM212B (11763350_a_at) / Fold change /veh FAM212B (11763350_a_at) / RFU PLEKHG5 (11743358_a_at) / Fold change /veh PLEKHG5 (11743358_a_at) / RFU ZSCAN30 (11745921_a_at) / Fold change /veh ZSCAN30 (11745921_a_at) / RFU CMKLR1 (11741424_a_at) / Fold change /veh CMKLR1 (11741424_a_at) / RFU LOC101060620 /// MAPK8IP1 (11723275_at) / Fold change /veh LOC101060620 /// MAPK8IP1 (11723275_at) / RFU SPTSSB (11747773_x_at) / Fold change /veh SPTSSB (11747773_x_at) / RFU PRSS12 (11739890_at) / Fold change /veh PRSS12 (11739890_at) / RFU BIN1 (11741810_x_at) / Fold change /veh BIN1 (11741810_x_at) / RFU WNT11 (11732464_a_at) / Fold change /veh WNT11 (11732464_a_at) / RFU C10orf10 (11716521_a_at) / Fold change /veh C10orf10 (11716521_a_at) / RFU C5orf56 (11738089_at) / Fold change /veh C5orf56 (11738089_at) / RFU CYB561 (11721691_x_at) / Fold change /veh CYB561 (11721691_x_at) / RFU ANKRD19P (11752326_a_at) / Fold change /veh ANKRD19P (11752326_a_at) / RFU OR2T12 /// OR2T33 /// OR2T8 (11738714_s_at) / Fold change /veh OR2T12 /// OR2T33 /// OR2T8 (11738714_s_at) / RFU VCAN (11748164_a_at) / Fold change /veh VCAN (11748164_a_at) / RFU JSRP1 (11732532_at) / Fold change /veh JSRP1 (11732532_at) / RFU KRTAP10-11 (11738290_x_at) / Fold change /veh KRTAP10-11 (11738290_x_at) / RFU MYO3A (11730013_a_at) / Fold change /veh MYO3A (11730013_a_at) / RFU EBF3 (11725865_a_at) / Fold change /veh EBF3 (11725865_a_at) / RFU CAMK2N1 (11719241_x_at) / Fold change /veh CAMK2N1 (11719241_x_at) / RFU C5orf56 (11738088_a_at) / Fold change /veh C5orf56 (11738088_a_at) / RFU OLFML3 (11715873_a_at) / Fold change /veh OLFML3 (11715873_a_at) / RFU LOC100653217 /// NTM (11731650_a_at) / Fold change /veh LOC100653217 /// NTM (11731650_a_at) / RFU MAPK11 (11762145_a_at) / Fold change /veh MAPK11 (11762145_a_at) / RFU FIZ1 (11724087_x_at) / Fold change /veh FIZ1 (11724087_x_at) / RFU OASL (11726364_x_at) / Fold change /veh OASL (11726364_x_at) / RFU SOX15 (11748057_x_at) / Fold change /veh SOX15 (11748057_x_at) / RFU CD79A (11719716_a_at) / Fold change /veh CD79A (11719716_a_at) / RFU HIST1H1D (11736915_at) / Fold change /veh HIST1H1D (11736915_at) / RFU CASKIN2 (11723855_a_at) / Fold change /veh CASKIN2 (11723855_a_at) / RFU LOC730098 (11760151_x_at) / Fold change /veh LOC730098 (11760151_x_at) / RFU OR4N2 (11742367_at) / Fold change /veh OR4N2 (11742367_at) / RFU PRRT2 (11749266_a_at) / Fold change /veh PRRT2 (11749266_a_at) / RFU SNX32 (11753110_a_at) / Fold change /veh SNX32 (11753110_a_at) / RFU CDHR5 (11726645_a_at) / Fold change /veh CDHR5 (11726645_a_at) / RFU RCAN1 (11760418_a_at) / Fold change /veh RCAN1 (11760418_a_at) / RFU FAM167A (11723789_a_at) / Fold change /veh FAM167A (11723789_a_at) / RFU FAM26E (11764081_at) / Fold change /veh FAM26E (11764081_at) / RFU ISYNA1 (11749810_s_at) / Fold change /veh ISYNA1 (11749810_s_at) / RFU ACY1 (11761880_at) / Fold change /veh ACY1 (11761880_at) / RFU 11764098_at / Fold change /veh 11764098_at / RFU SAMD14 (11745864_x_at) / Fold change /veh SAMD14 (11745864_x_at) / RFU NPB (11741838_a_at) / Fold change /veh NPB (11741838_a_at) / RFU TMPRSS6 (11731388_a_at) / Fold change /veh TMPRSS6 (11731388_a_at) / RFU KRTAP10-2 (11738614_at) / Fold change /veh KRTAP10-2 (11738614_at) / RFU ARHGAP8 /// PRR5-ARHGAP8 (11727945_x_at) / Fold change /veh ARHGAP8 /// PRR5-ARHGAP8 (11727945_x_at) / RFU KRTAP5-7 /// NADSYN1 (11734609_at) / Fold change /veh KRTAP5-7 /// NADSYN1 (11734609_at) / RFU RASL12 (11751679_a_at) / Fold change /veh RASL12 (11751679_a_at) / RFU CDKN2B (11736163_a_at) / Fold change /veh CDKN2B (11736163_a_at) / RFU PRF1 (11729649_at) / Fold change /veh PRF1 (11729649_at) / RFU, ZNF638 /// ZNF638-IT1 / Fold change vs veh, ZNF638 /// ZNF638-IT1 / RFU, PANK3 / Fold change vs veh, PANK3 / RFU, SH3YL1 / Fold change vs veh, SH3YL1 / RFU, ZEB2 / Fold change vs veh, ZEB2 / RFU, NRIP1 / Fold change vs veh, NRIP1 / RFU, PTTG1IP / Fold change vs veh, PTTG1IP / RFU, CAPN2 / Fold change vs veh, CAPN2 / RFU, MED14 / Fold change vs veh, MED14 / RFU, SNORA58 / Fold change vs veh, SNORA58 / RFU, C1orf63 / Fold change vs veh, C1orf63 / RFU, LRRFIP1 / Fold change vs veh, LRRFIP1 / RFU, NDUFAF7 / Fold change vs veh, NDUFAF7 / RFU, SLC12A2 / Fold change vs veh, SLC12A2 / RFU, IBTK / Fold change vs veh, IBTK / RFU, ESF1 / Fold change vs veh, ESF1 / Fold change vs veh, TMEM50B / RFU, TAOK1 / Fold change vs veh, TAOK1 / RFU, ACBD3 / Fold change vs veh, ACBD3 / RFU, TMA16 / Fold change vs veh, TMA16 / RFU, RWDD3 / Fold change vs veh, RWDD3 / RFU, BCAT1 / Fold change vs veh, BCAT1 / RFU, EDEM3 / Fold change vs veh, EDEM3 / RFU, TMEM33 / Fold change vs veh, TMEM33 / RFU, WDR75 / Fold change vs veh, WDR75 / RFU, AHCTF1 / Fold change vs veh, AHCTF1 / RFU, TFRC / Fold change vs veh, TFRC / RFU, ZDHHC17 / Fold change vs veh, ZDHHC17 / RFU, NOM1 / Fold change vs veh, NOM1 / RFU, ARL8B / Fold change vs veh, ARL8B / RFU, ZBTB11 / Fold change vs veh, ZBTB11 / RFU, TAMM41 / Fold change vs veh, TAMM41 / RFU, KIAA1704 /// LOC100996395 / Fold change vs veh, KIAA1704 /// LOC100996395 / RFU, ING1 / Fold change vs veh, ING1 / RFU, TRMT61B / Fold change vs veh, TRMT61B / RFU, FUBP3 / Fold change vs veh, FUBP3 / RFU, TP53 / Fold change vs veh, TP53 / RFU, TNKS2 / Fold change vs veh, TNKS2 / RFU, ZFP14 / Fold change vs veh, ZFP14 / RFU, ACTR2 / Fold change vs veh, ACTR2 / RFU, PPP3R1 / Fold change vs veh, PPP3R1 / RFU, PIK3R1 / Fold change vs veh, PIK3R1 / RFU, HNRNPA1 / Fold change vs veh, HNRNPA1 / RFU, RNF170 / Fold change vs veh, RNF170 / RFU, ZNF28 / Fold change vs veh, ZNF28 / RFU, RNGTT / Fold change vs veh, RNGTT / RFU, OGT / Fold change vs veh, OGT / RFU, BRD1 / Fold change vs veh, BRD1 / RFU, MARS / Fold change vs veh, MARS / RFU, ZNF655 / Fold change vs veh, ZNF655 / RFU, FAHD1 / Fold change vs veh, FAHD1 / RFU, BDP1 / Fold change vs veh, BDP1 / RFU, LRRCC1 / Fold change vs veh, LRRCC1 / RFU, ARID1A / Fold change vs veh, ARID1A / RFU, ZNF146 / Fold change vs veh, ZNF146 / RFU, ZNF330 / Fold change vs veh, ZNF330 / RFU, GPN3 / Fold change vs veh, GPN3 / RFU, C9orf123 / Fold change vs veh, C9orf123 / RFU, N4BP2L2 / Fold change vs veh, N4BP2L2 / RFU, ARFIP1 / Fold change vs veh, ARFIP1 / RFU, FAM179B / Fold change vs veh, FAM179B / RFU, BCL10 / Fold change vs veh, BCL10 / RFU, UHRF1BP1L / Fold change vs veh, UHRF1BP1L / RFU, BET1 / Fold change vs veh, BET1 / RFU, CNOT2 / Fold change vs veh, CNOT2 / RFU, ZNF268 / Fold change vs veh, ZNF268 / Fold change vs veh, ZNF507 / RFU, DGCR2 / Fold change vs veh, DGCR2 / RFU, WDSUB1 / Fold change vs veh, WDSUB1 / Fold change vs veh, HSP90B1 /// MIR3652 / RFU, ADSS / Fold change vs veh, ADSS / RFU, GK / Fold change vs veh, GK / RFU, ZNF148 / Fold change vs veh, ZNF148 / RFU, TAF9 / Fold change vs veh, TAF9 / RFU, SLC1A5 / Fold change vs veh, SLC1A5 / RFU, SLMO2 / Fold change vs veh, SLMO2 / RFU, ABCC4 / Fold change vs veh, ABCC4 / RFU, LOC101060439 /// RAP1B / Fold change vs veh, LOC101060439 /// RAP1B / RFU, RFX7 / Fold change vs veh, RFX7 / RFU, GTPBP10 / Fold change vs veh, GTPBP10 / RFU, CNEP1R1 / Fold change vs veh, CNEP1R1 / RFU, BIVM-ERCC5 /// ERCC5 / Fold change vs veh, BIVM-ERCC5 /// ERCC5 / RFU, ILF3 / Fold change vs veh, ILF3 / RFU 11762660_at / Fold change /veh 11762660_at / RFU VCAN (11757783_s_at) / Fold change /veh VCAN (11757783_s_at) / RFU DDX43 (11728927_at) / Fold change /veh DDX43 (11728927_at) / RFU KRT8 (11758188_x_at) / Fold change /veh KRT8 (11758188_x_at) / RFU NKD1 (11759106_at) / Fold change /veh NKD1 (11759106_at) / RFU SRD5A1 (11742802_a_at) / Fold change /veh SRD5A1 (11742802_a_at) / RFU TPSAB1 /// TPSB2 (11721975_s_at) / Fold change /veh TPSAB1 /// TPSB2 (11721975_s_at) / RFU GSTM3 (11746129_a_at) / Fold change /veh GSTM3 (11746129_a_at) / RFU IL23R (11737362_x_at) / Fold change /veh IL23R (11737362_x_at) / RFU TMEM51 (11727254_a_at) / Fold change /veh TMEM51 (11727254_a_at) / RFU PIWIL2 (11732686_x_at) / Fold change /veh PIWIL2 (11732686_x_at) / RFU ORM1 (11744905_x_at) / Fold change /veh ORM1 (11744905_x_at) / RFU CCDC152 (11743942_at) / Fold change /veh CCDC152 (11743942_at) / RFU ECM1 (11717891_a_at) / Fold change /veh ECM1 (11717891_a_at) / RFU IL23R (11748794_a_at) / Fold change /veh IL23R (11748794_a_at) / RFU TNFAIP8L3 (11732012_x_at) / Fold change /veh TNFAIP8L3 (11732012_x_at) / RFU MBOAT4 (11741988_at) / Fold change /veh MBOAT4 (11741988_at) / RFU 11764193_at / Fold change /veh 11764193_at / RFU TMEM53 (11763286_at) / Fold change /veh TMEM53 (11763286_at) / RFU MAGEB2 (11727129_at) / Fold change /veh MAGEB2 (11727129_at) / RFU TMEM200A (11744735_a_at) / Fold change /veh TMEM200A (11744735_a_at) / RFU CCDC152 (11751479_a_at) / Fold change /veh CCDC152 (11751479_a_at) / RFU FAM211A (11726209_a_at) / Fold change /veh FAM211A (11726209_a_at) / RFU RGS16 (11746705_a_at) / Fold change /veh RGS16 (11746705_a_at) / RFU VCAN (11755009_s_at) / Fold change /veh VCAN (11755009_s_at) / RFU RHOB (11743442_s_at) / Fold change /veh RHOB (11743442_s_at) / RFU RGS16 (11720943_a_at) / Fold change /veh RGS16 (11720943_a_at) / RFU RGS16 (11720944_at) / Fold change /veh RGS16 (11720944_at) / RFU, VPS4B / Fold change vs veh, VPS4B / RFU, CREB1 / Fold change vs veh, CREB1 / RFU, DNAJC13 / Fold change vs veh, DNAJC13 / RFU, GNAQ / Fold change vs veh, GNAQ / RFU, CDK5R1 / Fold change vs veh, CDK5R1 / RFU, ZRANB3 / Fold change vs veh, ZRANB3 / RFU, CUL4A / Fold change vs veh, CUL4A / RFU, CCNY / Fold change vs veh, CCNY / RFU, UFL1 / Fold change vs veh, UFL1 / RFU, COG3 / Fold change vs veh, COG3 / RFU, DIAPH2 / Fold change vs veh, DIAPH2 / RFU, SKA2 / Fold change vs veh, SKA2 / RFU, AFF3 / Fold change vs veh, AFF3 / RFU, LMF1 / Fold change vs veh, LMF1 / RFU, IPO11 / Fold change vs veh, IPO11 / RFU, DFFB / Fold change vs veh, DFFB / RFU, FOXP1 / Fold change vs veh, FOXP1 / RFU, CARD8 / Fold change vs veh, CARD8 / RFU, STRN3 / Fold change vs veh, STRN3 / RFU, ADK / Fold change vs veh, ADK / RFU, RASSF2 / Fold change vs veh, RASSF2 / RFU, WIPF1 / Fold change vs veh, WIPF1 / RFU, LARP1B / Fold change vs veh, LARP1B / RFU, RASA1 / Fold change vs veh, RASA1 / RFU, RB1 / Fold change vs veh, RB1 / RFU, PPFIA1 / Fold change vs veh, PPFIA1 / RFU, MAT2A / Fold change vs veh, MAT2A / RFU, CCT5 / Fold change vs veh, CCT5 / RFU, WDR92 / Fold change vs veh, WDR92 / RFU, CUX1 / Fold change vs veh, CUX1 / RFU, TTC7A / Fold change vs veh, TTC7A / RFU, TMEM135 / Fold change vs veh, TMEM135 / RFU, DEPTOR / Fold change vs veh, DEPTOR / RFU, CPM / Fold change vs veh, CPM / RFU, DNAJB6 / Fold change vs veh, DNAJB6 / RFU, CACNA2D3 / Fold change vs veh, CACNA2D3 / RFU, DTX4 / Fold change vs veh, DTX4 / RFU, TFCP2 / Fold change vs veh, TFCP2 / RFU, GMCL1 /// GMCL1P1 / Fold change vs veh, GMCL1 /// GMCL1P1 / RFU, AEBP2 / Fold change vs veh, AEBP2 / RFU, SNHG1 /// SNORD22 /// SNORD25 /// SNORD26 /// SNORD27 /// SNORD28 /// SNORD29 /// SNORD31 / Fold change vs veh, SNHG1 /// SNORD22 /// SNORD25 /// SNORD26 /// SNORD27 /// SNORD28 /// SNORD29 /// SNORD31 / Fold change (Aza/veh), C12orf56 (ProbeSet 11735607_a_at) / Fold change (ACY-1035/veh), C12orf56 (ProbeSet 11735607_a_at) / Fold change (Aza/veh), FGFR1OP (ProbeSet 11751329_s_at) / Fold change (ACY-1035/veh), FGFR1OP (ProbeSet 11751329_s_at) / Fold change (Aza/veh), VPS36 (ProbeSet 11739960_a_at) / Fold change (ACY-1035/veh), VPS36 (ProbeSet 11739960_a_at) / RFU SYPL1 (11715823_x_at) / Fold change /veh SYPL1 (11715823_x_at) / RFU IGFBP7 (11715501_s_at) / Fold change /veh IGFBP7 (11715501_s_at) / RFU REEP3 (11722064_at) / Fold change /veh REEP3 (11722064_at) / RFU IGLL1 (11728026_x_at) / Fold change /veh IGLL1 (11728026_x_at): dose or concentration left out as unconfirmed.

Turning to `Nc1ccc(-c2cccs2)cc1NC(=O)c1ccc2c(c1)cc(C1CC1)n2CCN1CCOCC1` [ACY-1035], the “RFU, ARL8B” value is on record as 236.78 RFU.
